From patent US9895466B2, “Liposomal drug delivery system for bone cements” (UNIVERSITY COLLEGE CARDIFF CONSULTANTS LIMITED, priority 2013, dated 2018) come the findings set out here.

This assay has as its system Staphylococcus aureus (S. aureus). Put plainly: Microbial growth and zones of inhibition on agar plates. The format is cell-based. The settings on record: 24 hours at 37° C. The method, then:
10 mm diameter by 2 mm thick cylindrical bone cement samples were prepared as previously described for Palacos R, Palacos R+G and Palacos R with 200 mg of L61 liposomal gentamicin sulphate. Tryptone soya agar (TSA) was prepared by dissolving 40 g of tryptone soy agar medium in one liter of distilled water. The solution was boiled for one minute then sterilized in an autoclave at 121° C. for 15 minutes. The solution was allowed to cool to 45-50° C. before being dispensed into petri dishes (9 cm diameter). The petri dishes were cooled to room temperature then stored at 8-15° C. until use. Staphylococcus aureus (S. aureus) was cultured in tryptic soy broth (TSB) for 18-24 hours at 37° C. A sterile cotton swab was used to spread the inoculum across the TSA petri dish. The petri dish was turned by 60° and the process was repeated to ensure complete surface coverage. A 10 ug gentamicin standard disc was placed on the petri dish as a control and pressure was applied to the top of the disc to ensure full surface contact. […] The petri dish was then incubated at 37° C. for 18-24 hours, after which, the zones of inhibition around the samples and gentamicin disc were measured. Images of the zones of inhibition were taken and measured using ImageJ software (National Institutes of Health, Maryland, USA). The zones of inhibition were measured as the radius of the zone minus the radius of the sample. […]

gentamicin sulphate: the “Zone of inhibition against S. aureus” value is recorded as “created a zone of inhibition”.
